The text below walks through data of patent US20060039866A1, “Method for treating sleep-related breathing disorders” (Cypress Bioscience, Inc., priority 2004, published 2006).

Data set [1] deals with patients with sleep apnea. As to conditions: cited from earlier work; for benefit in OSAS / obstructive sleep apnea: individuals with obstructive apnea.
Another data set has as its system rat model. The note with it: cited from earlier work.
The subject of data set [2] is animal model of sleep apnea. As to conditions: cited from earlier work.
Data set [3] is described as follows: treating OSA with MER 810. As to conditions: in vivo. From the text: The latter has been associated with worsening OSA symptoms due to reduction in upper airway tone in animal models. However, this pharmacology may also increase SWS and increase respiratory drive via peripheral effects, while its serotonin (5-HT) reuptake inhibition and 5-HT1A agonist activities decrease REM sleep. The 5-HT1A agonist activity also increases respiratory drive and may increase upper airway muscle tone (Homer). Adding a noradrenergic alpha1 agonist, alpha2 antagonist or reuptake inhibitor bolsters the latter effect.

Where [4] appears, read: individuals with obstructive sleep apnea.

On to medroxyprogesterone, for which, in data set [1], the “benefit in OSAS / obstructive sleep apnea” value is “no consistent benefit”. For the compound `CC(=O)Nc1nnc(S(N)(=O)=O)s1` [acetazolamide, N-(5-[Aminosulfonyl]-1,3,4-thiadiazol-2-yl)acetamide], in data set [1] (Whyte et al., Sleep), the apnea/hypopnea frequency result is “improvement in apnea/hypopnea frequency” and the “frequency of 4% desaturation” value is given as “decreased the frequency of 4% desaturation”.

For the compound `CCN1CC(CCN2CCOCC2)C(c2ccccc2)(c2ccccc2)C1=O` (stereo not shown) [doxapram], in data set [1] (setting [4]), the “average arterial oxygen saturation” value is listed as “did not alter” and the length of apneas result is on record as “decrease the length of apneas”. In the case of `C=CCN1CC[C@]23c4c5ccc(O)c4O[C@H]2C(=O)CC[C@@]3(O)[C@H]1C5` [naloxone], the “benefit in OSAS / obstructive sleep apnea” value in data set [1] is “only slightly helpful”. For `Cn1c(=O)c2[nH]cnc2n(C)c1=O` [theophylline], the “benefit in OSAS / obstructive sleep apnea” value in data set [1] was “of no use”. Besides, in data set [1] (patients with central apnea), the “benefit in central apnea” value is “may benefit”. For `CN1CCN2c3ncccc3Cc3ccccc3C2C1` (stereo not shown) [mirtazapine, 1,2,3,4,10,14b-hexahydro-2-methylpyrazino[2,1-a]pyrido[2,3-c]benzazepine], in the data set with rat model, the “efficacy in the rat model” value was “appeared effective”.

With `CNCCCC1c2ccccc2C=Cc2ccccc21` [Protriptyline], the “results of several small trials” value in data set [1] (individuals with OSAS) is “variable results”. The side effects result in data set [1] (several small trials) was “frequent and significant side effects”. As for `Nc1ncnc2c1ncn2[C@@H]1O[C@H](CO)[C@@H](O)[C@H]1O` [adenosine], the reducing apnea result in data set [2] was “somewhat effective”. `CC1CN(c2cccc(Cl)c2)CCN1CCCn1nc2ccccn2c1=O` (stereo not shown) [MER 810]: the “effectiveness in treating OSA” value in data set [3] is reported as “quite effective”.
